In PubChem BioAssay AID488797 (The Scripps Research Institute Molecular Screening Center, 2010):
The source made the active and inactive calls.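 Rule for the calls: active = half-inhibiting concentration IC50 at or below 10 µM; inactive = IC50 above 10 µM.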

biological target: Female germline-specific tumor suppressor gld-1 (Caenorhabditis elegans) (UniProt Q17339); assay: potency of GLD-1/TGE RNA binding inhibitors, late-stage follow-up, biochemical, fluorescence polarization, IC50, powder samples (AID 488797); settings: GLD-1 / FL-TGE RNA binding
Sequence (Q17339 whole entry, looked up): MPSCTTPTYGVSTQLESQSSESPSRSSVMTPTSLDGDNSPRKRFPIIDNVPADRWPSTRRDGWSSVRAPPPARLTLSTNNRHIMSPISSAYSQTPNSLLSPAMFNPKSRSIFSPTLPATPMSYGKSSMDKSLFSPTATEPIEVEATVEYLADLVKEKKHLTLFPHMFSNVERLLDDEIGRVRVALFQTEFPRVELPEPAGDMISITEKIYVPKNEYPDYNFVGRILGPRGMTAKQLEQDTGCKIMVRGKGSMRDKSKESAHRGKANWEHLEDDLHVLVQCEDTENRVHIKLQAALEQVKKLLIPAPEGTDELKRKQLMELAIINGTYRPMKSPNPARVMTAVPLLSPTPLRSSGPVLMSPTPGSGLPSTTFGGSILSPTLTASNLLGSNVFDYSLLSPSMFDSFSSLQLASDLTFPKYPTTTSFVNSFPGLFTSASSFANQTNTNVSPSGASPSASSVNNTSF

**Q.** With O=C1C2=C(SCCS2)C(=O)N1CCCO as the compound, how does the IC50 read?
**A.** 4.73 µM

**Q.** Which IC50 does the source give for Cc1ccc(S(=O)(=O)Nc2cc3c(C(=O)Nc4ccccc4)c(C)oc3c3ccccc23)cc1 here?
**A.** 1.66 µM

**Q.** For O=c1[nH]c(=O)c2nc3ccccc3nc2[nH]1, which IC50 is on record?
**A.** inactive

**Q.** For COc1ccc(/C=C(\CC(=O)O)c2nc3ccccc3s2)cc1O, which IC50 is on record?
**A.** 2.17 µM

**Q.** With CCOC(=O)c1c(C)oc2c1cc(NS(=O)(=O)c1ccc(C)cc1)c1ccccc12 as the compound, how does the IC50 read?
**A.** > 59.6 µM (inactive)

**Q.** How did the IC50 turn out when CCCCn1c(=O)[nH]c2nc3cc(NC(C)=O)ccc3nc2c1=O was run?
**A.** 2.62 µM

**Q.** For Nc1ccc2nonc2c1[N+](=O)[O-], which IC50 is on record?
**A.** > 59.6 µM (inactive)

**Q.** For O=C(CN1C(=O)NC2(CCCCC2)C1=O)Oc1ccc2c(C(F)(F)F)cc(=O)oc2c1, which IC50 is on record?
**A.** 5.62 µM

**Q.** Which IC50 does the source give for O=c1[nH]c2cc3ccccc3cc2nc1C(F)(F)F here?
**A.** 2.5 µM

**Q.** Cc1ccc(S(=O)(=O)Nc2cc3c(C(=O)Nc4ccccc4)c(C)oc3c3ccccc23)c(C)c1 was tested. Which IC50 did it give?
**A.** 1.14 µM

**Q.** Which IC50 does the source give for COc1ccc(C=Nc2c(-c3ccco3)nc3ccccn23)cc1OC here?
**A.** > 59.6 µM (inactive)

**Q.** Nc1c(O)ccc2c1C(=O)c1ccccc1C2=O was tested. Which IC50 did it give?
**A.** 4.17 µM

**Q.** For CC1=CC(=O)c2c(O)ccc(O)c2C1=O, which IC50 is on record?
**A.** 5.67 µM

**Q.** How did the IC50 turn out when CCN(CC)S(=O)(=O)c1ccc(N2CCCC2)c(NS(=O)(=O)c2ccc(F)cc2)c1 was run?
**A.** inactive

**Q.** How did the IC50 turn out when Nc1ccc(O)c2c1C(=O)c1ccccc1C2=O was run?
**A.** 3 µM
